Test results taken from patent US20240279687A1, “PEPTIDE NUCLEIC ACIDS FOR SPATIOTEMPORAL CONTROL OF CRISPR-CAS BINDING” (Yale University, priority 2021, published 2024).
{Lys} = L-lysine residue attached to the PNA terminus

Experiments:
[1] = system: 20mer RNA oligonucleotide (spacer sequence designed to target the BFP gene); assay: UV spectroscopy thermal melting analysis of duplexes; type: binding; conditions: 1 μM each strand, 10 mM sodium phosphate buffer pH 7.4
Method: All samples were prepared by mixing a stoichiometric amount of each strand (1 μM) in 10 mM sodium phosphate buffer at pH 7.4 (Table 8). The samples were pre-annealed at 95° C. for 5 mins and gradually cooled to room temperature prior to the melting experiment. UV melting experiments were performed using a Shimadzu UV-3600 Plus UV-Vis-NIR spectrophotometer equipped with a thermoelectrically controlled multicell holder. UV melting spectra were recorded after every 1° C. temperature change by monitoring the absorbance at 260 nm from 20° C. to 110° C. to 20° C., with a heating/cooling ramp rate of 1.0° C./min. The heating and cooling curves were overlapped to confirm reversible denaturation. All spectra were plotted on Origin 2020 and smoothed using a 20-point adjacent averaging algorithm. The first derivative plots of the melting curves were generated to determine the melting temperature for each duplex.

[2] = system: Cas9 RNP using a sgRNA targeted to the HBB gene (R-01); assay: Cas9 RNP editing at HBB in K562 cells (amplicon sequencing); type: cell-based, human
Method: (§1) For Cas9 RNP assembly, 50 pmol of sgRNA (IDT, Alt-R CRISPR-Cas9 sgRNA) and 45 pmol of SpCas9 (CPO2, PNA BIO) were incubated at room temperature for 10 minutes in a 5 μL reaction in 1×3.1 Buffer (B7203S, NEB). For nucleofections, 1×10^6 cells, 5 μL Cas9 RNP, and 1 μL of Alt-R Cas9 electroporation enhancer (IDT) were resuspended in 100 μL of Lonza cell line solution (V4XC-2024/V4XC-1024, Lonza) and nucleofected using a Lonza 4D-Nucleofector X unit. Cas9 RNP treated cells were seeded in 2 mL of complete media and incubated for 96 hours prior to harvesting for analysis.
(§2) For PNA pre-treatments, 1×10^6 cells and 1 μL of PNA diluted to desired concentration in water were similarly nucleofected using Lonza cell line kits and 4D-Nucleofector. PNA nucleofected cells were resuspended in 1.25 mL of complete media in 1.5 mL tubes and incubated at 37° C. for 2 hours before Cas9 RNP nucleofection as described above. After Cas9 RNP nucleofection cells were seeded in 2 mL of complete media and incubated for 96 hours prior to harvesting and analysis.
10^6 stable BFP-expressing K562 cells were nucleofected (Lonza 4D Nucleofector) with a specified dose of BFP cis-protospacer PNA or HBB PNA (0-250 pmol). Two hours later, all conditions were nucleofected with 45 pmol of purified Cas9 RNP using a sgRNA targeted to the BFP gene or targeted to the HBB gene (R-01). 72 hours later, cells with BFP fluorescent drop out (via Cas9 indel formation) were quantified by flow cytometry (Beckman Coulter Cytoflex instrument) for the BFP target (FIG. 3A). For the HBB target (FIG. 3B-3C), 72 hours post-treatment gDNA was extracted (Promega ReliaPrep) and the region of interest was PCR amplified (NEB Phusion). Indel frequency was measured by T7 endonuclease assay (NEB—EnGen Mutation Detection Kit).
(§3) Genomic DNA was purified from 0.5×10^6 cells using Promega ReliaPrep gDNA Tissue Miniprep System (A2052) and eluted in 50 μL of water. Library prep used 100 ng of gDNA input with Ampliseq for Illumina Library Plus kit (20019101, Illumina) and used a custom primer pool designed to amplify a designed panel of genomic targets of interest (Table 9). Libraries were indexed, pooled, and loaded onto a Mid-output (300-cycles, Illumina, FC-420-1004) cartridge for paired-end sequencing on an Illumina Miniseq instrument. FASTQ reads were subjected to quality analysis (Basespace FASTQC) and analyzed for indel frequency using Cas-Analyzer assessment tool (parameters: Comparison range (R)—both ends of full amplicon sequence, Minimum frequency (n)=1). gRNAs used in this study are listed in Table 8, amplicon genomic coordinates listed in Table 9.

[3] = system: Cas9 RNP (FANCF, EMX1, ZSCAN2, CCR5, VEGFA gRNAs); assay: On-target specificity of Cas9 RNP (ratio of on-target to off-target editing rates); type: cell-based, human
Method: as §2, §3
In the case of EMX1 ON and OFF target amplicons, both regions were amplified from 200 ng of purified gDNA by Phusion High-Fidelity Polymerase (NEB, M0530S) and pooled and purified using QIAGEN PCR purification kit (28104, Qiagen). Library prep used 200 ng of purified amplicon input with Illumina DNA Prep kit (20025519, Illumina). EMX1 libraries were similarly indexed, pooled, sequenced, and analysed as above.
For pre-annealed PAM-distal PNA experiments, 50 pmol of sgRNA and 50 pmol of PAM-distal 10mer PNAs were incubated in a thermocycler at 37° C. for 30 minutes in a 5 μL reaction in 1×3.1 Buffer (B7203S, NEB) to allow annealing. PNA annealing to sgRNAs was confirmed by gel shift on 5% polyacrylamide gel. 45 pmol of SpCas9 (CP02, PNA BIO) was then added at room temperature and incubated for 10 minutes to allow RNP formation. Resulting reaction was delivered to 1×10^6 K562 cells by a single nucleofection and treated as described above.

[4] = system: Cas9 RNP using a sgRNA targeted to the BFP gene; assay: Cas9 RNP editing of BFP reporter gene in K562-BFP cells (BFP fluorescent drop out, flow cytometry); type: cell-based, human; conditions: for inhibitory effect on Cas9-mediated BFP gene disruption and indel formation: 0-250 pmol nucleofected 2 hours prior to Cas9 RNP
Method: as §1, §2
K562 cells were spun down and resuspended in fresh complete media at 300,000 cells/mL 48 hours prior to analysis. Samples for flow cytometry were fixed in complete media with 1% formaldehyde for 15 minutes before spinning down, resuspending in 300 μL PBS, and filtering through a cell strainer capped tube. Samples were analyzed for BFP and GFP fluorescence using a Cytoflex LX instrument (Beckman Coulter) using PacificBlue and FITC lasers, respectively, and quantification and gating was done using FloJo v10 software. Background fluorescent drop out was determined by measurement of mock nucleofected lines in quadruplicate and subtracted from experimental values to determine reported editing frequency.
10^6 stable BFP-expressing K562 cells were nucleofected (Lonza 4D Nucleofector) with a specified dose of PNA or ssDNA oligo (0-250 pmol). Two hours later, all conditions were nucleofected with 45 pmol of purified Cas9 RNP using a sgRNA targeted to the BFP gene. 72 hours later, cells with BFP fluorescent drop out (via Cas9 indel formation) were quantified by flow cytometry (Beckman Coulter—Cytoflex instrument).
In time-course experiments in FIG. 3D, K562 samples were nucleofected with 5 μL RNP reactions with the addition of 100 pmol of ssODN donor in 1 μL of water. RNP nucleofected samples were incubated at 37° C. in complete media before being spun down and nucleofected with 250 pmol of PNA at specified time points. After PNA delivery cells were seeded in 2 mL of complete media and incubated for 96 hours prior to harvesting and analysis.
10^6 stable BFP-expressing K562 cells were nucleofected (Lonza 4D Nucleofector) with specified dose (0-250 pmol, or 250 pmol if unspecified) of specified PNA with sequences homologous to (antispacer) or identical to (cis-spacer) the BFP gRNA spacer sequence. Two hours later, all conditions were nucleofected with 45 pmol of purified Cas9 RNP using a sgRNA targeted to the BFP gene. 72 hours later, cells with BFP fluorescent drop out (via Cas9 indel formation) were quantified by flow cytometry (Beckman Coulter—Cytoflex instrument).
10^6 stable BFP-expressing K562 cells were nucleofected (Lonza 4D Nucleofector) with 45 pmol of purified Cas9 RNP using a sgRNA targeted to the BFP gene. At each specified time point 250 pmol of BFP Anti-protospacer PNA were introduced via nucleofection. For “Cas9 only” condition there was no second PNA nucleofection and for “0 hrs” 250 pmol of PNA was co-nucleofected with Cas9 in a single reaction. After each nucleofection samples were left in fresh media for the duration of the experiment to acquire edits. 72 hours after the “24 hrs” nucleofection, cells for all conditions with BFP fluorescent drop out (via Cas9 indel formation) were quantified by flow cytometry (Beckman Coulter—Cytoflex instrument).

dCas9-VPR / POU5F1 sgRNA = assay: CRISPRa (dCas9-VPR) POU5F1 expression in stable K562 cells, RT-qPCR; type: cell-based, human; conditions: 250 pmol PNA
Method: Stable K562-hEF1α-dCas9-VPR line was established by lentiviral transduction using Edit-R purified lentiviral particles (Horizon Discovery) and blasticidin selection (5 μg/mL, A1113903, Gibco). dCas9-VPR integration was confirmed by western blot with CRISPR-Cas9 antibody (7A9-3A3, Novus). dCas9-VPR expressing line was further transduced with Edit-R CRISPRa human POU5F1 sgRNA purified lentiviral particles (VSGH11902, Horizon Discovery, Table 4) and puromycin selection (2 μg/mL, Gibco).
4×10^6 stable dCas9-VRP/POU5F1 sgRNA expressing K562 cells (generated using lentivirus from Horizon Discovery), or K562 cells, were nucleofected with 250 pmol of specified PNA (non-targeting BFP or POU5F1) using a Lonza 4D nucleofector. At each specified time point 500 μL of cells were removed from each condition flask, spun down, and frozen. RNA was extracted from each pellet using QIAGEN Rneasy Mini Kits and cDNA was generated using Applied Biosystems High Capacity cDNA reverse transcription kit. rtPCR reactions were conducted for each sample using a StepOnePLUS Real-Time PCR System (Applied Biosystems) using Taqman Fast Advanced Master Mix and TaqMan gene specific probes for POU5F1 and GAPDH. Expression relative to the untreated parent K562 line was recorded as fold-change and calculated using the ΔΔCT method.
For RNA extractions 0.5×10^6 K562 cells were spun down, washed once with PBS, homogenized using QIAshredder columns (QIAGEN 79656) and processed using QIAGEN RNeasy mini kits (74106) before eluting in 50 μL of water. Resulting RNA was used as input for high-capacity cDNA Reverse Transcription Kit (Applied Biosystems) and resulting reaction was diluted 1:5 with water. RT-qPCR reactions were conducted in triplicate for each sample using a StepOnePLUS Real-Time PCR System (Applied Biosystems) and Taqman Fast Advanced Master Mix (Applied Biosystems) with TaqMan gene specific probes (Table 8). Expression relative to the untreated K562 parent line was recorded as fold-change and calculated from averaged CT values using the ΔΔCT method.

[5] = 150 pmol dose, three replicates

AUGGCGUGCAGUGCUUCAGC (chemistry not given here) [Antispacer RNA (melting study), complementary RNA oligomer (length 20nt), IDT]
Tm of duplex with RNA spacer sequence [1]: 69 °C

CCAACTGCAT (all peptide nucleic acid (PNA); further chemistry not fully specified) [HBB R-01 PAMprox 10 mer PNA, 1 Lysine (K) on either end]
HBB editing ([2]; 50 pmol PNA (45.2% without PNA)): 0.102% | mean fold reduction of HBB target editing [2, 5]: 2,372 fold | total indels detected across 28,104 analyzed amplicons [2, 5]: 6 | fold reduction of HBB target editing ([2]; 1:1 PNA:sgRNA ratio (50 pmol)): 443 fold

GCTCGGACTC (all peptide nucleic acid (PNA); further chemistry not fully specified) [EMX1 PAMdist 10 mer PNA]
specificity ratio versus Cas9 only ([3]; K562, HEK293, and U2OS cell lines, PNA pre-treatment prior to Cas9 RNP nucleofection): significantly increased specificity ratios | specificity versus pre-treatment approaches ([3]; PNA pre-annealed to sgRNA prior to Cas9 RNP formation, delivered as a single complex, K562): further improved specificity

K-ATGGCGTGCA-K (all peptide nucleic acid (PNA), 5' {Lys}, 3' {Lys}) [BFP PAM-proximal PNA]
reduction of BFP editing ([4]; 50 pmol dose): 96.0% | reduction of BFP editing ([4]; 250 pmol dose): 99.7% | fold reduction in editing ([4]; 1:1 PNA:sgRNA molar ratio (50 pmol)): 24.5 fold | fold reduction in editing ([4]; 5:1 PNA:sgRNA ratio (250 pmol)): 342.6 fold

K-GTGCAGTGCT-K (all peptide nucleic acid (PNA), 5' {Lys}, 3' {Lys}) [BFP PAM-middle PNA]
fold reduction in editing ([4]; 5:1 PNA:sgRNA ratio (250 pmol)): 32.4 fold

K-GTGCTTCAGC-K (all peptide nucleic acid (PNA), 5' {Lys}, 3' {Lys}) [BFP PAM-distal PNA]
inhibitory effect on Cas9-mediated BFP gene disruption and indel formation [4]: attenuated effect | reduction of BFP editing ([4]; 50 pmol dose): 10% | reduction of BFP editing ([4]; 250 pmol dose): 32%

KKK-CCACCATTAGGCAAACATCC-KKK (all peptide nucleic acid (PNA), 5' {Lys}-{Lys}-{Lys}, 3' {Lys}-{Lys}-{Lys}) [POU5F1 CRISPRa PNA]
duration of the full effect (dCas9-VPR / POU5F1 sgRNA): 2 to 3 days | effect on CRISPRa upregulated POU5F1 expression (dCas9-VPR / POU5F1 sgRNA): down to the level of the parental K562 line | time after treatment at which the effect appears to dissipate (dCas9-VPR / POU5F1 sgRNA): approximately 5 days | time by which POU5F1 expression dropped to the level of the parent line expression (dCas9-VPR / POU5F1 sgRNA): ≤ 48 h | time by which expression began to return to its upregulated baseline (dCas9-VPR / POU5F1 sgRNA): ≤ 120 h

KKK-GGGTTAAGGCAATAGCAATA-KKK [GFP Non-Targeting PNA]
inhibitory effect on Cas9-mediated BFP gene disruption and indel formation ([4]; listed as heterologous GFP PNA): no effect | inhibitory effect on Cas9-mediated BFP gene disruption and indel formation ([4]; listed as non-targeting (GFP) PNA): entirely ineffective
